Results on nine molecules are retold here after article doi:10.1101/2024.08.19.608619, “Discovery of potent SARS-CoV-2 nsp3 macrodomain inhibitors uncovers lack of translation to cellular antiviral response” (bioRxiv, 2024).

Holding throughout (experiment): biochemical
Design in all cases: In vitro kinase panel profiling, per cent remaining kinase activity at 10 uM

One assay deals with T1, ASK1(h) (Homo sapiens, UniProt Q99683).
T1 construct: gene MAP3K5
T1 sequence (Q99683 1-1374): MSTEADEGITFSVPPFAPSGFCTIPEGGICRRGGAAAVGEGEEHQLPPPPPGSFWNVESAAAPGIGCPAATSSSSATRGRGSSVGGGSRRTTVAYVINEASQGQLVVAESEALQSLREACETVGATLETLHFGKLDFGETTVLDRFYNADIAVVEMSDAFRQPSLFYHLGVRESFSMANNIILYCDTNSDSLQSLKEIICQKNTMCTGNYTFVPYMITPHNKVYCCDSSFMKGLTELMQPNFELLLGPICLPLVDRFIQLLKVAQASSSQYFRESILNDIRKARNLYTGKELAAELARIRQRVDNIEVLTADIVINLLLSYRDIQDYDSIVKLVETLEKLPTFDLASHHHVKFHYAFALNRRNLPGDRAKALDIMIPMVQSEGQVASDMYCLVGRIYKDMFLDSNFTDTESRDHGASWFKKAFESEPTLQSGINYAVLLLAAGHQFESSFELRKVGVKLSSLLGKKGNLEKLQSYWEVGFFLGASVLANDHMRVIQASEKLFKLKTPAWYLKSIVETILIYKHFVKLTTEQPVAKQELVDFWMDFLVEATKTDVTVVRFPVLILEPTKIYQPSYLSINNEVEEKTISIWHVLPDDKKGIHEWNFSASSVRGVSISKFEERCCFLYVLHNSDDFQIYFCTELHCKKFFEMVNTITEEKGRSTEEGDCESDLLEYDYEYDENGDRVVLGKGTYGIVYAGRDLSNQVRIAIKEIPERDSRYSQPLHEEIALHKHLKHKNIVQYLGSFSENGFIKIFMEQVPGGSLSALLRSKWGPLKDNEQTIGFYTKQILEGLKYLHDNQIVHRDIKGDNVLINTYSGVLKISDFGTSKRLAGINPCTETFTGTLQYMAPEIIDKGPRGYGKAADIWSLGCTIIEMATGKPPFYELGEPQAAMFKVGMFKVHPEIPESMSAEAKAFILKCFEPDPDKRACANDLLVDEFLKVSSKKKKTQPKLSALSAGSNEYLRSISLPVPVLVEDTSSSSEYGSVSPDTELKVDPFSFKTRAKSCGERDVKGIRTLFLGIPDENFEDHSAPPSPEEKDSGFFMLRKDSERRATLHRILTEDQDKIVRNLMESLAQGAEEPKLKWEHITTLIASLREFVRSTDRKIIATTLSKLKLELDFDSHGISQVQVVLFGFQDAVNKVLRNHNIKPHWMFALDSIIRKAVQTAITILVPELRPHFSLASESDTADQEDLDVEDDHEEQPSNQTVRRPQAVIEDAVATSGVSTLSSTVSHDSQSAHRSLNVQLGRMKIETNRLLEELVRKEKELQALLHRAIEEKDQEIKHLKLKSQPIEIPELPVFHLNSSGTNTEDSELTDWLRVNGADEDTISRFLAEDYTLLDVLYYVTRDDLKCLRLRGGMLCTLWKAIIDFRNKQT
Particulars: atp_concentration=200, read-out: % of control remaining. From the text: (§1) We derisk potential for off-target activity by profiling the compound in a CEREP panel, a standard secondary pharmacology assessment, as well as a kinase panel to derisk a potential hinge-binding motif in our leads, and a PARP panel to derisk activity against human […]. Reassuringly, the compounds are selective, with the only off-targets being moderate human CHRM2 and KOR receptors activity associated with ASAP-0011198.

In a further assay the target is CDK6/cyclinD3(h) (Homo sapiens, UniProt Q00534). The following applies: atp_concentration=200, read-out: % of control remaining.
Sequence of CDK6/cyclinD3(h) (Q00534 whole entry): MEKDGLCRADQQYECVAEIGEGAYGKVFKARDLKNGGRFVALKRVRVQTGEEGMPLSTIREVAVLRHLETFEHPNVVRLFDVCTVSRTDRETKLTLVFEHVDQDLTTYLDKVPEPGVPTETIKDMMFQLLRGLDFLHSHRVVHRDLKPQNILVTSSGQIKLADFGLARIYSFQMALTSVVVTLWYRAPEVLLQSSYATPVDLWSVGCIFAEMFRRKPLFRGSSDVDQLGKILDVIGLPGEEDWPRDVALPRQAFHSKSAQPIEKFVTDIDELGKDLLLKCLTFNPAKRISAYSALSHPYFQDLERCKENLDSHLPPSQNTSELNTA
Sequence of CDK6/cyclinD3(h) (P30281 whole entry partner): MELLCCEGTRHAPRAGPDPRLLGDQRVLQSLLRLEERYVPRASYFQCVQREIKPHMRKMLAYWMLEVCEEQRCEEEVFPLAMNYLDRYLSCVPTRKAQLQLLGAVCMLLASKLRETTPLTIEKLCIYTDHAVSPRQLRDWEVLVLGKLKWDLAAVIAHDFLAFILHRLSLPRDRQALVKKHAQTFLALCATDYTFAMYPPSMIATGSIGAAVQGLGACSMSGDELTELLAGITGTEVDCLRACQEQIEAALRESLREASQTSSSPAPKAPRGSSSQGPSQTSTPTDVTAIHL
Source text: as §1

The next assay deals with T2, DRAK1(h) (Homo sapiens, UniProt Q9UEE5).
T2 construct: gene STK17A
T2 sequence (Q9UEE5 1-414): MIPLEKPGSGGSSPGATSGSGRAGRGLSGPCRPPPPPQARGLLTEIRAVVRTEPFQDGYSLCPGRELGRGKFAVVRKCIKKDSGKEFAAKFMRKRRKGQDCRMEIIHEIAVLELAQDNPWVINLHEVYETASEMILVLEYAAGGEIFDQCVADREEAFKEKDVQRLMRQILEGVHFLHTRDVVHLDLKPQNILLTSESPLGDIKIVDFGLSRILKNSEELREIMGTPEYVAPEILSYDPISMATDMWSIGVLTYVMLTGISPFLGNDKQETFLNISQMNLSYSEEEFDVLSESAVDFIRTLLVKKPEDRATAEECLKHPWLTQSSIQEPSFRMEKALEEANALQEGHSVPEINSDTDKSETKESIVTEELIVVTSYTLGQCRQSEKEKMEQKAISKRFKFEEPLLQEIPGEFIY
Particulars: atp_concentration=10, read-out: % of control remaining.
Source text: as §1

The target in the next assay is T3, MAPKAP-K2(h) (Homo sapiens, UniProt P49137).
T3 construct: gene MAPKAPK2
T3 sequence (P49137 whole entry): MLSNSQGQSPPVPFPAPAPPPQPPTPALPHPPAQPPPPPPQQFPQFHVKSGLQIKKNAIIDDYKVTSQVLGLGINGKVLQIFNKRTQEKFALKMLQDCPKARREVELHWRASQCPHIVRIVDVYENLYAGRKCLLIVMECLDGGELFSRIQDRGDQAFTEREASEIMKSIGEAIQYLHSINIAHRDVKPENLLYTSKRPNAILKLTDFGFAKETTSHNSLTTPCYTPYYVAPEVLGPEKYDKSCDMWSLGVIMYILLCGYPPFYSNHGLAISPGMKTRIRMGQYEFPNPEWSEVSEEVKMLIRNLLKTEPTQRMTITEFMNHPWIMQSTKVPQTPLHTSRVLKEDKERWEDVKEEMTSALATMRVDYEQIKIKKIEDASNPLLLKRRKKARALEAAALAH
The following applies: atp_concentration=90, read-out: % of control remaining.
Source text: as §1

Another assay concerns the target T4, PKCα(h) (Homo sapiens, UniProt P17252).
T4 construct: gene PRKCA
Particulars: atp_concentration=45, read-out: % of control remaining.
Source text: as §1

Another assay concerns the target T5, PKCθ(h) (Homo sapiens, UniProt Q04759).
T5 construct: gene PRKCQ
The following applies: atp_concentration=15, read-out: % of control remaining.
Source text: as §1

Read-outs that look alike come from different tables or passages of the source.

T5 sequence (Q04759 whole entry): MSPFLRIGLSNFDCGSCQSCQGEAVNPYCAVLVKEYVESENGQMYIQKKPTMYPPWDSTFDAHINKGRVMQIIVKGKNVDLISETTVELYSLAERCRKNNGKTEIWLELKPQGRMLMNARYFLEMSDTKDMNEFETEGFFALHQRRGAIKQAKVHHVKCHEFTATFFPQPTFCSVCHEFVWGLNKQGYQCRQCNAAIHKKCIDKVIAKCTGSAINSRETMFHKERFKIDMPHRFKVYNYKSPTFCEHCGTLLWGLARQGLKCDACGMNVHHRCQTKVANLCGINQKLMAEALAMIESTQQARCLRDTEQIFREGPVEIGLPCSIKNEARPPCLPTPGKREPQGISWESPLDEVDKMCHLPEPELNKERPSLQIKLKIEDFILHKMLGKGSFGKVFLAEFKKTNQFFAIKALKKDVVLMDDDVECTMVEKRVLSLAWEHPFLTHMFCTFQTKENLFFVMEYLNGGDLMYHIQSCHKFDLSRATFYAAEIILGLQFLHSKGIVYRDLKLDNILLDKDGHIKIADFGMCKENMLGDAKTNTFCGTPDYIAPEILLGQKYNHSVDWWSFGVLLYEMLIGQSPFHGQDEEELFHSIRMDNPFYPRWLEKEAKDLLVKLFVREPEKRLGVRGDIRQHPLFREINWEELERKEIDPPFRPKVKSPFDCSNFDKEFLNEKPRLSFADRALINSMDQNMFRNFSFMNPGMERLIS

With `CC(C)C(Nc1ncnc2[nH]ccc12)c1ccc2c(c1)S(=O)(=O)CCC2` (stereo not shown) [ASAP-0008327], the remaining activity at 10 µM came to 108% at ASK1(h) (batch_name=ASAP-0008327-001); 99% on CDK6/cyclinD3(h) (batch_name=ASAP-0008327-001); 96% on DRAK1(h) (batch_name=ASAP-0008327-001); 105% at MAPKAP-K2(h) (batch_name=ASAP-0008327-001); 104% at PKCα(h) (batch_name=ASAP-0008327-001); 101% at PKCθ(h) (batch_name=ASAP-0008327-001).
As to `COc1ccc([C@@H](Cc2nnn[nH]2)NC(=O)c2ncnc3[nH]ccc23)cc1` [ASAP-0008340], the remaining activity at 10 µM was determined as 101% on ASK1(h) (batch_name=ASAP-0008340-001); 100% at CDK6/cyclinD3(h) (batch_name=ASAP-0008340-001); 111% at DRAK1(h) (batch_name=ASAP-0008340-001); 92% at MAPKAP-K2(h) (batch_name=ASAP-0008340-001); 95% on PKCα(h) (batch_name=ASAP-0008340-001); 90% at PKCθ(h) (batch_name=ASAP-0008340-001).
As for `CC(C)[C@@H](Nc1ncnc2[nH]c(-c3cnn(C)c3C#N)cc12)c1ccc2c(n1)OCCO2` [ASAP-0008418], the remaining activity at 10 µM at CDK6/cyclinD3(h) (batch_name=ASAP-0008418-001) is 105%; at DRAK1(h) (batch_name=ASAP-0008418-001) it was 101%; at PKCα(h) (batch_name=ASAP-0008418-001) it was 90%; at PKCθ(h) (batch_name=ASAP-0008418-001) it was 93%.
`CC(C)[C@H](Nc1ncnc2[nH]ccc12)c1ccc2c(c1)S(=O)(=O)CCC2` [ASAP-0008674]: the remaining activity at 10 µM stood at 105% at ASK1(h) (batch_name=ASAP-0008674-002); 105% at CDK6/cyclinD3(h) (batch_name=ASAP-0008674-002); 117% on DRAK1(h) (batch_name=ASAP-0008674-002); 106% on MAPKAP-K2(h) (batch_name=ASAP-0008674-002); 98% at PKCα(h) (batch_name=ASAP-0008674-002); 88% on PKCθ(h) (batch_name=ASAP-0008674-002).
As for `CC(C)[C@H](Nc1ncnc2[nH]c(-c3cnn(C)c3C#N)cc12)c1ccc2c(n1)OCCO2` [ASAP-0010715], the remaining activity at 10 µM on ASK1(h) (batch_name=ASAP-0010715-002) was determined as 106%; at CDK6/cyclinD3(h) (batch_name=ASAP-0010715-002), 102%; on DRAK1(h) (batch_name=ASAP-0010715-002), 105%; on MAPKAP-K2(h) (batch_name=ASAP-0010715-002), 115%.
On to `CC(C)[C@@H](Nc1ncnc2[nH]c(-c3cnn(C)c3C#N)cc12)c1ccc2c(n1)OCCO2` [ASAP-0010716], for which the remaining activity at 10 µM at ASK1(h) (batch_name=ASAP-0010716-002) came to 108%; on DRAK1(h) (batch_name=ASAP-0010716-002), 108%; on MAPKAP-K2(h) (batch_name=ASAP-0010716-002), 114%; at PKCα(h) (batch_name=ASAP-0010716-002), 99%; on PKCθ(h) (batch_name=ASAP-0010716-002), 111%.
For `CNCc1cc(-c2cc3c(N[C@@H](c4ccc5c(c4)S(=O)(=O)CCC5)C(C)C)ncnc3[nH]2)co1` [ASAP-0011176], the remaining activity at 10 µM at CDK6/cyclinD3(h) (batch_name=ASAP-0011176-002) was determined as 92%; at DRAK1(h) (batch_name=ASAP-0011176-002), 86%; at MAPKAP-K2(h) (batch_name=ASAP-0011176-002), 106%; on PKCα(h) (batch_name=ASAP-0011176-002), 99%; at PKCθ(h) (batch_name=ASAP-0011176-002), 106%.
Regarding `Cn1ncc(-c2cc3c(N[C@@H](c4ccc5c(n4)OCCO5)C(C)(C)C)ncnc3[nH]2)c1C#N` [ASAP-0011221], the remaining activity at 10 µM on ASK1(h) (batch_name=ASAP-0011221-002) was 108%; on DRAK1(h) (batch_name=ASAP-0011221-002), 108%; at MAPKAP-K2(h) (batch_name=ASAP-0011221-002) it was 110%; at PKCα(h) (batch_name=ASAP-0011221-002), 87%; on PKCθ(h) (batch_name=ASAP-0011221-002), 96%.
`COc1ccc([C@H](Cc2nnn[nH]2)NC(=O)c2ncnc3[nH]ccc23)cc1` [ASAP-0015381]: the remaining activity at 10 µM worked out at 103% on ASK1(h) (batch_name=ASAP-0015381-001); 102% at CDK6/cyclinD3(h) (batch_name=ASAP-0015381-001); 102% on MAPKAP-K2(h) (batch_name=ASAP-0015381-001); 93% on PKCα(h) (batch_name=ASAP-0015381-001); 91% on PKCθ(h) (batch_name=ASAP-0015381-001).
